Experimental data from ChEMBL document CHEMBL4800729 (2021).

Assays:
[1] = target: Serine/threonine-protein kinase pim-1 (Homo sapiens) (UniProt P11309); experiment: Pim-1(h) Millipore kinase panel; settings: Compound concentration 1.0 uM
[2] = target: Serine/threonine-protein kinase tousled-like 2 (Homo sapiens) (UniProt Q86UE8); experiment: TLK2(h) Millipore kinase panel; settings: Compound concentration 1.0 uM
[3] = target: NUAK family SNF1-like kinase 1 (Homo sapiens) (UniProt O60285); experiment: ARK5(h) Millipore kinase panel; settings: Compound concentration 1.0 uM
[4] = target: Bone morphogenetic protein receptor type-2 (Homo sapiens) (UniProt Q13873); experiment: BMPR2(h) Millipore kinase panel; settings: Compound concentration 1.0 uM
[5] = target: RAF proto-oncogene serine/threonine-protein kinase (Homo sapiens) (UniProt P04049); experiment: c-RAF(h) Millipore kinase panel; settings: Compound concentration 1.0 uM
[6] = target: Phosphatidylinositol 4-phosphate 3-kinase C2 domain-containing subunit alpha (Homo sapiens) (UniProt O00443); experiment: PI3KC2a(h) Millipore kinase panel; settings: Compound concentration 1.0 uM
[7] = target: Receptor tyrosine-protein kinase erbB-2 (Homo sapiens) (UniProt P04626); experiment: ErbB2(h) Millipore kinase panel; settings: Compound concentration 1.0 uM
[8] = target: Dual specificity protein kinase CLK1 (Homo sapiens) (UniProt P49759); experiment: CLK1(h) Millipore kinase panel; settings: Compound concentration 1.0 uM
D(1A) dopamine receptor = D(1A) dopamine receptor (Homo sapiens, UniProt P21728); settings: Compound concentration 10.0 uM
Homo sapiens = species: Homo sapiens; settings: Compound concentration 10.0 uM
[9] = target: Ribosomal protein S6 kinase alpha-4 (Homo sapiens) (UniProt O75676); experiment: MSK2(h) Millipore kinase panel; settings: Compound concentration 1.0 uM
[10] = target: Serine/threonine-protein kinase 17A (Homo sapiens) (UniProt Q9UEE5); experiment: DRAK1(h) Millipore kinase panel; settings: Compound concentration 1.0 uM
[11] = target: RAC-beta serine/threonine-protein kinase (Homo sapiens) (UniProt P31751); experiment: PKBbeta(h) Millipore kinase panel; settings: Compound concentration 1.0 uM
[12] = target: Cyclin-dependent kinase 13/Cyclin-K (Homo sapiens) (UniProt Q14004+O75909); experiment: CDK13/cyclinK(h) Millipore kinase panel; type: protein-complex assay; settings: Compound concentration 1.0 uM
[13] = target: T1, 5-hydroxytryptamine receptor 1A (Homo sapiens) (UniProt P08908); settings: Compound concentration 10.0 uM
T1 sequence (whole entry): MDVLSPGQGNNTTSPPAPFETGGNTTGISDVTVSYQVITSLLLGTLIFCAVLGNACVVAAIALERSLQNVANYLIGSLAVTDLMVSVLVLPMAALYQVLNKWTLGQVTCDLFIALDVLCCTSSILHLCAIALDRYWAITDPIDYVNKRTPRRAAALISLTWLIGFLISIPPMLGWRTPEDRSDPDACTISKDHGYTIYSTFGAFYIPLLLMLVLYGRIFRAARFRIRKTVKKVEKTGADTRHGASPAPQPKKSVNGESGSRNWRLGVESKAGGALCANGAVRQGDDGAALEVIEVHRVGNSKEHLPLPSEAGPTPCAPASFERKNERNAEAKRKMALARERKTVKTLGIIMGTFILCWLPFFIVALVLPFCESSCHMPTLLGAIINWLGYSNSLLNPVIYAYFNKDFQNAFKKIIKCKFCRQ

[14] = target: MAP kinase-interacting serine/threonine-protein kinase 2 (Homo sapiens) (UniProt Q9HBH9); experiment: Mnk2(h) Millipore kinase panel; settings: Compound concentration 1.0 uM
[15] = target: Serine/threonine-protein kinase SIK2 (Homo sapiens) (UniProt Q9H0K1); experiment: SIK2(h) Millipore kinase panel; settings: Compound concentration 1.0 uM
[16] = target: Ribosomal protein S6 kinase alpha-3 (Homo sapiens) (UniProt P51812); experiment: Rsk2(h) Millipore kinase panel; settings: Compound concentration 1.0 uM
[17] = target: 3-phosphoinositide-dependent protein kinase 1 (Homo sapiens) (UniProt O15530); experiment: PDK1(h) Millipore kinase panel; settings: Compound concentration 1.0 uM
[18] = target: Death-associated protein kinase 3 (Homo sapiens) (UniProt O43293); experiment: ZIPK(h) Millipore kinase panel; settings: Compound concentration 1.0 uM
[19] = target: Tyrosine-protein kinase receptor UFO (Homo sapiens) (UniProt P30530); experiment: Axl(h) Millipore kinase panel; settings: Compound concentration 1.0 uM
[20] = target: Serine/threonine-protein kinase TAO1 (Homo sapiens) (UniProt Q7L7X3); experiment: TAO1(h) Millipore kinase panel; settings: Compound concentration 1.0 uM
[21] = target: 5'-AMP-activated protein kinase catalytic subunit alpha-1 (Homo sapiens) (UniProt Q13131); experiment: AMPKalpha1(h) Millipore kinase panel; settings: Compound concentration 1.0 uM
[22] = target: Cyclin-dependent kinase 2/cyclin E (Homo sapiens) (UniProt P24864+P24941+O96020); experiment: CDK2/cyclinE(h) Millipore kinase panel; type: protein-complex assay; settings: Compound concentration 1.0 uM
[23] = target: Serine/threonine-protein kinase MARK1 (Homo sapiens) (UniProt Q9P0L2); experiment: MARK1(h) Millipore kinase panel; settings: Compound concentration 1.0 uM
[24] = target: Progesterone receptor (Homo sapiens) (UniProt P06401); settings: Compound concentration 10.0 uM
[25] = target: Sodium-dependent noradrenaline transporter (Homo sapiens) (UniProt P23975); settings: Compound concentration 10.0 uM
[26] = target: Tyrosine-protein kinase ABL2 (Homo sapiens) (UniProt P42684); experiment: Arg(h) Millipore kinase panel; settings: Compound concentration 1.0 uM
[27] = target: Receptor tyrosine-protein kinase erbB-4 (Homo sapiens) (UniProt Q15303); experiment: ErbB4(h) Millipore kinase panel; settings: Compound concentration 1.0 uM
[28] = target: Serine/threonine-protein kinase Nek7 (Homo sapiens) (UniProt Q8TDX7); experiment: NEK7(h) Millipore kinase panel; settings: Compound concentration 1.0 uM
[29] = target: RAC-gamma serine/threonine-protein kinase (Homo sapiens) (UniProt Q9Y243); experiment: PKBgamma(h) Millipore kinase panel; settings: Compound concentration 1.0 uM
[30] = target: B1 bradykinin receptor (Homo sapiens) (UniProt P46663); settings: Compound concentration 10.0 uM
[31] = target: Testis-specific serine/threonine-protein kinase 4 (Homo sapiens) (UniProt Q6SA08); experiment: TSSK4(h) Millipore kinase panel; settings: Compound concentration 1.0 uM
[32] = target: RAC-alpha serine/threonine-protein kinase (Homo sapiens) (UniProt P31749); experiment: PKBalpha(h) Millipore kinase panel; settings: Compound concentration 1.0 uM
[33] = target: Fibroblast growth factor receptor 1 (Homo sapiens) (UniProt P11362); experiment: FGFR1(h) Millipore kinase panel; settings: Compound concentration 1.0 uM
[34] = target: Casein kinase I isoform epsilon (Homo sapiens) (UniProt P49674); experiment: CK1epsilon(h) Millipore kinase panel; settings: Compound concentration 1.0 uM
[35] = target: Serine/threonine-protein kinase D2 (Homo sapiens) (UniProt Q9BZL6); experiment: PKD2(h) Millipore kinase panel; settings: Compound concentration 1.0 uM
[36] = target: Dual specificity tyrosine-phosphorylation-regulated kinase 3 (Homo sapiens) (UniProt O43781); experiment: DYRK3(h) Millipore kinase panel; settings: Compound concentration 1.0 uM
[37] = target: Dual specificity mitogen-activated protein kinase kinase 2 (Homo sapiens) (UniProt P36507); experiment: MEK2(h) Millipore kinase panel; settings: Compound concentration 1.0 uM
[38] = target: Adenosine receptor A2a (Homo sapiens) (UniProt P29274); settings: Compound concentration 10.0 uM
[39] = target: Serine/threonine-protein kinase 17B (Homo sapiens) (UniProt O94768); experiment: DRAK2(h) Millipore kinase panel; settings: Compound concentration 1.0 uM
[40] = target: Tau-tubulin kinase 1 (Homo sapiens) (UniProt Q5TCY1); experiment: TTBK1(h) Millipore kinase panel; settings: Compound concentration 1.0 uM
[41] = target: Serine/threonine-protein kinase Nek9 (Homo sapiens) (UniProt Q8TD19); experiment: NEK9(h) Millipore kinase panel; settings: Compound concentration 1.0 uM

Measured: inhibition

Serine/threonine-protein kinase tousled-like 2 (Homo sapiens), sequence (Q86UE8 whole entry, looked up): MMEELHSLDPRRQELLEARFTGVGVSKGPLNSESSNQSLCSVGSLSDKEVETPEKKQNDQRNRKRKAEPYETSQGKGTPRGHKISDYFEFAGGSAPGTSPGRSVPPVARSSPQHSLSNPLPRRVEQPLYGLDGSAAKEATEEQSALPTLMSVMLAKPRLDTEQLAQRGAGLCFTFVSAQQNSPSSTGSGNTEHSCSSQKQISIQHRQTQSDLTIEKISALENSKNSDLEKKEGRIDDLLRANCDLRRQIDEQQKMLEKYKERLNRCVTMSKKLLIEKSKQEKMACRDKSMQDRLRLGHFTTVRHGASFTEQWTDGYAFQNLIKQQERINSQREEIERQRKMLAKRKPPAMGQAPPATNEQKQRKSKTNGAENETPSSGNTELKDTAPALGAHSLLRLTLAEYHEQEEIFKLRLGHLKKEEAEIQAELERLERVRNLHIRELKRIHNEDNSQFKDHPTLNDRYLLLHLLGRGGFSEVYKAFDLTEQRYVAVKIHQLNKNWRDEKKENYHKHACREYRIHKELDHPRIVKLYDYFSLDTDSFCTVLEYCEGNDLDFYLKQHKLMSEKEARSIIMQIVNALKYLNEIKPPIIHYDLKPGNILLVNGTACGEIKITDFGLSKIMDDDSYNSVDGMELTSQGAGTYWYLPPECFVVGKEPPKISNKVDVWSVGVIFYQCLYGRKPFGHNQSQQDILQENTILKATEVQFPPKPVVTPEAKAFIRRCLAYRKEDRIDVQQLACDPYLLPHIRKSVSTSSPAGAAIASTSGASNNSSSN
Serine/threonine-protein kinase SIK2 (Homo sapiens), sequence (Q9H0K1 whole entry, looked up): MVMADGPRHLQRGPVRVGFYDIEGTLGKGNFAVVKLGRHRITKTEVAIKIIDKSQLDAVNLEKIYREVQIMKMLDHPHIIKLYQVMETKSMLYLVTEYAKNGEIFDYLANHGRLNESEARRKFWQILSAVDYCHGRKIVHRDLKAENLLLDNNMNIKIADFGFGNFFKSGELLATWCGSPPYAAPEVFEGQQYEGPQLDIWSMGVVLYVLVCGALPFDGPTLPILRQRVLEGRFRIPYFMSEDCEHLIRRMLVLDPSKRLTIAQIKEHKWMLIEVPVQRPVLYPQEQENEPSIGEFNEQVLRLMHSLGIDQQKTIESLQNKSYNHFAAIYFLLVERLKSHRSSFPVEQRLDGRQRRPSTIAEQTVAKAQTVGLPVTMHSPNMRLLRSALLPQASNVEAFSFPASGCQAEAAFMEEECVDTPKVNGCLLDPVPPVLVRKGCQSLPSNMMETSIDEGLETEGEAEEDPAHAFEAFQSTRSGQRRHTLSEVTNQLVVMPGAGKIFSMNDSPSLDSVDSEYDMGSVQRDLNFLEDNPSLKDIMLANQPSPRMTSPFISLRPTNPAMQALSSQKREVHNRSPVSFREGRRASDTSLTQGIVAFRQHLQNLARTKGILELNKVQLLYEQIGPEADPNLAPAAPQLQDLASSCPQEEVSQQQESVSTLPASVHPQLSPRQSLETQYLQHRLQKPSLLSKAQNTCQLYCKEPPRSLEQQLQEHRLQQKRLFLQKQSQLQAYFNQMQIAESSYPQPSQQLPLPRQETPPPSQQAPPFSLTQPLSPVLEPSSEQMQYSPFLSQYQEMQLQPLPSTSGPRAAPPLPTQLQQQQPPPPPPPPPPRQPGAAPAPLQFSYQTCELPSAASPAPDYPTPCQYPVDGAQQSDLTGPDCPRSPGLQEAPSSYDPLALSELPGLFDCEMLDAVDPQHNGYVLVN
Serine/threonine-protein kinase pim-1 (Homo sapiens), sequence (P11309 whole entry, looked up): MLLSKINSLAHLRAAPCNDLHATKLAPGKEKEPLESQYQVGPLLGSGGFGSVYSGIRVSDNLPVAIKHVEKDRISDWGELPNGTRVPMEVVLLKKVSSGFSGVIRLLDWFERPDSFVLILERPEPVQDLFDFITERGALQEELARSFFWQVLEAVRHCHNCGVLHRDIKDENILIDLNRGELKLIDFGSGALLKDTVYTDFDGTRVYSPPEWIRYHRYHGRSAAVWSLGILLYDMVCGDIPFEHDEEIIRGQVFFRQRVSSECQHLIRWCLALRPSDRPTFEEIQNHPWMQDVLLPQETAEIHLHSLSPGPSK
Phosphatidylinositol 4-phosphate 3-kinase C2 domain-containing subunit alpha (Homo sapiens), sequence (O00443 whole entry, the tested form may be a part): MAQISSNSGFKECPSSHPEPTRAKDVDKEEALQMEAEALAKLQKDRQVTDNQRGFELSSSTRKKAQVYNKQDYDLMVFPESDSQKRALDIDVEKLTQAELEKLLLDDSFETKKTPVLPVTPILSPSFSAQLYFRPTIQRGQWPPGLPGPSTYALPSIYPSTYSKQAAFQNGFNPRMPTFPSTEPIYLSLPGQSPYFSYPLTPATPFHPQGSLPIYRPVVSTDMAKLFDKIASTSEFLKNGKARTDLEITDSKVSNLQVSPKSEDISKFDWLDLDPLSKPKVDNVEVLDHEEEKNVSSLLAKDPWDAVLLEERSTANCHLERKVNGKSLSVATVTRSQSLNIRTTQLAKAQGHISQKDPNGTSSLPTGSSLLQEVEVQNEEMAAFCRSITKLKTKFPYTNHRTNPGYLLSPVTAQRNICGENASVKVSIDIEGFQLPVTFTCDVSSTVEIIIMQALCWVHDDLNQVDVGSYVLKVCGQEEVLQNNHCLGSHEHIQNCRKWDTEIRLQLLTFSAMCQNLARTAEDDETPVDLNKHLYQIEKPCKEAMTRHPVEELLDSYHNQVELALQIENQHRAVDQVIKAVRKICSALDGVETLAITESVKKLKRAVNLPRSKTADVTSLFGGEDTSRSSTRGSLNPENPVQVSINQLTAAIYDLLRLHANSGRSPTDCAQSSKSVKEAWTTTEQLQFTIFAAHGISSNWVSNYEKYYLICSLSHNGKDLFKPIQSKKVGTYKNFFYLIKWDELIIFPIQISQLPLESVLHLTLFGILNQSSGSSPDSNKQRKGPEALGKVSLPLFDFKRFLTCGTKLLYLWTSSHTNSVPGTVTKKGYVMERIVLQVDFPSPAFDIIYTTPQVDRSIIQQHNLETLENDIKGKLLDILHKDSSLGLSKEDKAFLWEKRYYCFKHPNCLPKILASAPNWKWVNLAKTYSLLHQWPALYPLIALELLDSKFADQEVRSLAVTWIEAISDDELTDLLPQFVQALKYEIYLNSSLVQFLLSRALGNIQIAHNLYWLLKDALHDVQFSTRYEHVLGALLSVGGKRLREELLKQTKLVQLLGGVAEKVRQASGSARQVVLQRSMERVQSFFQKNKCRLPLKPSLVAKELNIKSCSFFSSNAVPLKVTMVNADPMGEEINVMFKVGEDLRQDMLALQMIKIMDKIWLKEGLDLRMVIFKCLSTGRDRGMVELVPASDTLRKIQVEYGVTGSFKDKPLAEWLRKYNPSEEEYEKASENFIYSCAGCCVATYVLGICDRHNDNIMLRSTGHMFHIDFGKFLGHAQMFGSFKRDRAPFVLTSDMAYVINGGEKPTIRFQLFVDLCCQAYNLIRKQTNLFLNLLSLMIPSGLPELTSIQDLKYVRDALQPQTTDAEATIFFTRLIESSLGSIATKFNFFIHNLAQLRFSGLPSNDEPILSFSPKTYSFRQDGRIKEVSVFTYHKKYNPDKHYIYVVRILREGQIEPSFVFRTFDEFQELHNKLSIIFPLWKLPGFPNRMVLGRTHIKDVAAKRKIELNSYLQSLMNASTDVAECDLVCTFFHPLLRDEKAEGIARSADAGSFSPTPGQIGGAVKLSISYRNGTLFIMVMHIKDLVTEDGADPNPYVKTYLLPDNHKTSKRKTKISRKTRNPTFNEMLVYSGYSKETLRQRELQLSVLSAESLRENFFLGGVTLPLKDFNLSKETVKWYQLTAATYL
Serine/threonine-protein kinase D2 (Homo sapiens), sequence (Q9BZL6 whole entry): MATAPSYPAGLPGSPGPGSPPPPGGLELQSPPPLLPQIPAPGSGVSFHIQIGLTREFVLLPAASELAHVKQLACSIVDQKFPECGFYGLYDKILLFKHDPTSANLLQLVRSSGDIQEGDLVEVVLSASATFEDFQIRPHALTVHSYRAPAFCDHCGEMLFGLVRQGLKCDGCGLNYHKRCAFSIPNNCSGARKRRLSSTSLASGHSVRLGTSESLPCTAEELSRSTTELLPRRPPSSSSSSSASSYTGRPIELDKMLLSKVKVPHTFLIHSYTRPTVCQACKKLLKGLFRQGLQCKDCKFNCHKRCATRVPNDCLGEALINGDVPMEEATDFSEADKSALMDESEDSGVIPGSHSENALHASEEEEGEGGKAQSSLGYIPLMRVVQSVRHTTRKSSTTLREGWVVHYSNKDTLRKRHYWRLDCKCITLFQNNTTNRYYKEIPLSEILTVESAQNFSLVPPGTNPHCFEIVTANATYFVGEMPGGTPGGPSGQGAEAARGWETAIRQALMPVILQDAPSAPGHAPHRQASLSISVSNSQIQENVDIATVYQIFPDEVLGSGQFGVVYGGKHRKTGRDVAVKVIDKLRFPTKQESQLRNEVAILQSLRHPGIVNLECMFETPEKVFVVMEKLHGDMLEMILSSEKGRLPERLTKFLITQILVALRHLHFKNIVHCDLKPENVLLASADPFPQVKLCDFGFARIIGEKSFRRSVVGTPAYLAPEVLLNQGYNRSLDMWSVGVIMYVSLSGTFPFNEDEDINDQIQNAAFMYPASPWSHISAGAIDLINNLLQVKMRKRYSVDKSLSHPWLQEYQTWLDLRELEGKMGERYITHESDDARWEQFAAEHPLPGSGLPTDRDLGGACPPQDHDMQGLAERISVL
Serine/threonine-protein kinase Nek7 (Homo sapiens), sequence (Q8TDX7 whole entry, looked up): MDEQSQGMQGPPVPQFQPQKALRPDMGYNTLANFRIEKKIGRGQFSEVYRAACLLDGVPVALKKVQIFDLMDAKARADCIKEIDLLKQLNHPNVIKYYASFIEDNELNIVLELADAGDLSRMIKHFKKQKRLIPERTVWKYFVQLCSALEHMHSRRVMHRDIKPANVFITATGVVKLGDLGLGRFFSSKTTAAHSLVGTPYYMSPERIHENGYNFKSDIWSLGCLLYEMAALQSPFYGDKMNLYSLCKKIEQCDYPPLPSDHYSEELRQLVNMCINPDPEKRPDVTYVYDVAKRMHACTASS

CC[C@@H](Nc1c(C#N)c(-c2ccc(-c3cccc(C)c3F)cc2)nc2cnccc12)C(=O)O [BAY-091]
inactive: [1] -2.53% | [2] 8.27% | [3] 4.55% | [4] 4.45% | [5] 36% | [6] 4.18% | [7] 8.53% | [8] 3.74% | D(1A) dopamine receptor 15% | Homo sapiens -8% | [9] -3.96% | [10] 9.65% | [11] 3.52% | [12] 1.16% | [13] -4.91% | [14] 3.39% | [15] 3.68% | [16] 1.78% | [17] -8.72% | [18] 0.91% | [19] 12.6% | [20] 1.92% | [21] -1.91% | [22] 7.13% | [23] 2.52% | [24] 29% | [25] -2.64% | [26] 7.75% | [27] 3.85% | [28] 5.49% | [29] 9.92% | [30] 0% | [31] 24% | [32] -1.04% | [33] 6.44% | [34] 8.85% | [35] 4.37% | [36] 7.66% | [37] -9.56% | [38] 7% | [39] 7.08% | [40] -2.05% | [41] 6.61%
